The values below come from US20260028354A1, “TETRAHYDRONAPHTHALENE DERIVATIVES AS ESTROGEN RECEPTOR DEGRADERS” (REGENT OF THE UNIVERSITY OF MICHIGAN, priority 2022, published 2026).

Usually IC50 stands for the concentration that gives 50% inhibition. As usually defined, the Dmax is the largest share of the target that was removed. As a reminder, the DC50 is the concentration giving 50% degradation.

One assay deals with ERα_LBD (GST) (Homo sapiens (Human), UniProt P03372). The assay can be described thus: IC50 measurements for binding to ERα_LBD (GST), LanthaScreen TR-FRET competitive binding. Conditions: ERα_LBD (GST) 4 nM, Fluormone ES2 Green tracer, 60 min; read-out: ERα HTRF IC50. The method in brief:
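Competitive TR-FRET displacement of Fluormone ES2 Green tracer (3 nM) from GST-tagged human ERα LBD (4 nM) with Tb anti-GST (2 nM), in nuclear receptor buffer K plus 5 mM DTT, 1% DMSO. 60 min at room temperature, dark; 520/495 nm ratio vs log[compound] fitted sigmoidally for IC50.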
A general note: Time-resolved FRET reads energy transfer from a long-lived donor to a nearby acceptor.

In the next assay the target is ER in MCF-7 cells (Homo sapiens (Human), UniProt P03372). The assay can be described thus: In-cell Western (ICW) ER degradation assay in MCF-7 cells. It is filed as cell-based.
In the next assay the test system is T47D cells. The assay can be described thus: CellTiter-Glo (CTG) cell proliferation assay in T47D cells. It is filed as cell-based. Conditions: Homo sapiens, 144 h, Day 6. The source says:
(§1) CellTiter-Glo® (CTG) Assays in MCF-7 and T47D Cell Lines.
(§2) In vitro Assay: MCF-7 and T47D CTG assay

For the next assay, the system named is MCF-7 cells. Put plainly: CellTiter-Glo (CTG) cell proliferation assay in MCF-7 cells. It is filed as cell-based. Conditions: Homo sapiens, MCF7, 144 h, MCF-7 cell proliferation, Day 6.
Description: as §1, §2

In a further assay the target is ER in T47D cells (Homo sapiens (Human), UniProt P03372). Put plainly: In-cell Western (ICW) ER degradation assay in T47D cells. It is filed as cell-based.
For a further assay, the target named is CRBN/DDB1 (Homo sapiens (Human), UniProt Q96SW2). It is filed as binding. Particulars: His tagged CRBN+DDB1, Cy5-labeled Thalidomide probe, one hour; read-out: CRBN HTRF IC50. As to the method: The binding potency was determined using HTRF assay technology (Perkin Elmer). Compounds were serially diluted in DMSO and […] volume was transferred to white 384-well plate.

Each structure is given as a SMILES string.

Chain of ER in T47D cells (P03372 whole entry): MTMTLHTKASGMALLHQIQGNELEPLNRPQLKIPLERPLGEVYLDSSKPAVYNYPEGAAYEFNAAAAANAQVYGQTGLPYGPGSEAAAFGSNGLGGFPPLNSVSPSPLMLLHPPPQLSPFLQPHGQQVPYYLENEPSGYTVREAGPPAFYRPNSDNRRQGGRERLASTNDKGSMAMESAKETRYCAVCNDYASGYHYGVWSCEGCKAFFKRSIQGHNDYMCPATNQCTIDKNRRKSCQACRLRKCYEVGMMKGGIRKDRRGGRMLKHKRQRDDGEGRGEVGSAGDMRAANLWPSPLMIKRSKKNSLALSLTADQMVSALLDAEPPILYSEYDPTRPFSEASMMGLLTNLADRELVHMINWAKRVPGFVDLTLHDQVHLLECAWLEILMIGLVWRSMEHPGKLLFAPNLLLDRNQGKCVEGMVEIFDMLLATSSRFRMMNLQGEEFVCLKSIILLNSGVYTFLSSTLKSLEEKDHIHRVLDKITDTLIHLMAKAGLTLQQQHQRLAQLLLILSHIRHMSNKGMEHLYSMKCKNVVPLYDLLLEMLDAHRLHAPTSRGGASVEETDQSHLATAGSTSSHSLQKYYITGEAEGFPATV
Chain of ER in MCF-7 cells (P03372 whole entry): as above
Chain of ERα_LBD (GST) (P03372 311-547): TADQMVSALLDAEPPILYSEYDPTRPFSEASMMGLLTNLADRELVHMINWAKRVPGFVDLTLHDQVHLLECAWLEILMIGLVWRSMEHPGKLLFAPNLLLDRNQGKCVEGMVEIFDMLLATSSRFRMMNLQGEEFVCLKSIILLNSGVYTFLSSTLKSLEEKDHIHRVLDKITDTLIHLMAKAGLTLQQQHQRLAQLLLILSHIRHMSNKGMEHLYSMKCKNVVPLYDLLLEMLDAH
Chain of CRBN/DDB1 (Q96SW2 whole entry, species assumed): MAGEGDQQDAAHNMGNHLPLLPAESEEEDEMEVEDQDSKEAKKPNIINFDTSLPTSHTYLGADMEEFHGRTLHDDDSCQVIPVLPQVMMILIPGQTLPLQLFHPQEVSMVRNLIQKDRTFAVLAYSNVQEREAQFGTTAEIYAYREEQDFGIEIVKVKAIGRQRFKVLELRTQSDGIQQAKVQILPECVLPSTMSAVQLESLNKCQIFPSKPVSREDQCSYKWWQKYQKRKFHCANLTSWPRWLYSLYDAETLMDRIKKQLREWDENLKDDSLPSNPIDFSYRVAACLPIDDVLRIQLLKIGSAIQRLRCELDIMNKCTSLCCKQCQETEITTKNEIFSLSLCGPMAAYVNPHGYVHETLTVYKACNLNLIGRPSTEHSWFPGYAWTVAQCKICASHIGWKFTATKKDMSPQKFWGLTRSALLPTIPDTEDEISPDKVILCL
Chain of CRBN/DDB1 (Q16531 whole entry partner, species assumed): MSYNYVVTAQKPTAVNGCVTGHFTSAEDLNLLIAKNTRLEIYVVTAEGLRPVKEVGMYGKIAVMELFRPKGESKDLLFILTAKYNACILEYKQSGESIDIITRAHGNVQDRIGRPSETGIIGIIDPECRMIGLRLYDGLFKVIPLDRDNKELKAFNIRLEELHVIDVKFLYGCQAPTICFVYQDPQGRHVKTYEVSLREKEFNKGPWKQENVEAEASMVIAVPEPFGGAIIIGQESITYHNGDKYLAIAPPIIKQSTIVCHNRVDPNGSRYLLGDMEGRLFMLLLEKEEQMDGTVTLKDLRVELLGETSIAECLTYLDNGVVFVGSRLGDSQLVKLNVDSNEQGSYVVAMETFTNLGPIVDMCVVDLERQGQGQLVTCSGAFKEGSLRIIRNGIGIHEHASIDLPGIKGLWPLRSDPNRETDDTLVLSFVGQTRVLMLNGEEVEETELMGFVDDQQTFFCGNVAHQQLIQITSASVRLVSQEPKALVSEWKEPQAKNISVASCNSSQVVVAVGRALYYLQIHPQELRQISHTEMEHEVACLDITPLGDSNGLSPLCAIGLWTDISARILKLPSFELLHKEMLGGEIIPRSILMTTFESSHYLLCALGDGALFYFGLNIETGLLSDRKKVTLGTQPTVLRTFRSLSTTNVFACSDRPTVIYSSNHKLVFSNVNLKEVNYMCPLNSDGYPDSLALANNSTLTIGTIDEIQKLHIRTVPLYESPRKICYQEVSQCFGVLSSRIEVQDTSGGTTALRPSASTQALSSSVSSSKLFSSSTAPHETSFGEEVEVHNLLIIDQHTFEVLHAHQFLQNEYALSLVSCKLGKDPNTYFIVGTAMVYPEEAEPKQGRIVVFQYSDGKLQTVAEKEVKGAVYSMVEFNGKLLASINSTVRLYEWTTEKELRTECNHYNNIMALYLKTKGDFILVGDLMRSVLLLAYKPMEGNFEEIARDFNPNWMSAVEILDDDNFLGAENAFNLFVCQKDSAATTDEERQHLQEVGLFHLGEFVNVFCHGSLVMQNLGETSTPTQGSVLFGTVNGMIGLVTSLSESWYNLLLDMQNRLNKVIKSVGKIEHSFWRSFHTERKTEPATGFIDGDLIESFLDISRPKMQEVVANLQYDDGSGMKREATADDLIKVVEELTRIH

Turning to `COc1cc(N2CCC3(CC2)CC(CN2CCC4(CC2)COc2c4ccc4c2CN([C@H]2CCC(=O)NC2=O)C4=O)C3)c(F)cc1[C@@H]1c2ccc(O)cc2CC[C@@H]1c1ccccc1` [Compound A100, (S)-3-(1′-((7-(2-fluoro-4-((1S,2S)-6-hydroxy-2-phenyl-1,2,3,4-tetrahydronaphthalen-1-yl)-5-methoxyphenyl)-7-azaspiro[3.5]nonan-2-yl)methyl)-6-oxo-6,8-dihydro-2H,7H-spiro[furo[2,3-e]isoindole-3,4′-piperidin]-7-yl)piperidine-2,6-dione], the IC50 on ERα_LBD (GST) is less than 10 nM; with T47D cells, less than 10 nM; in the assay on MCF-7 cells, less than 10 nM; on CRBN/DDB1, less than 50 nM. Moreover, the Dmax on ER in MCF-7 cells (MCF7, read-out: MCF7 Dmax, MCF-7, maximal ER degradation, 16 hrs treatment) is more than 75%; on ER in T47D cells (read-out: T47D Dmax, T47D, maximal ER degradation, 16 hrs treatment), more than 75%. For the same molecule, the DC50 was less than 1 nM on ER in MCF-7 cells (MCF-7, ER degradation, 16 hrs treatment, read-out: MCF7 DC50) and less than 1 nM on ER in T47D cells (ER degradation, 16 hrs treatment).
